# Test: Phase 1 study: safety and tolerability
# Type: in vivo
# Protocol: The maximum tolerated dose (MTD) of DZD1516 was defined based on safety data and the Bayesian optimal interval (BOIN) design (Additional file 1). The definition of DLT is provided in Additional file 1.
# The AE grading was assessed according to the NCI-Common Terminology Criteria for Adverse Events (CTCAE) (version 5.0) and was monitored until 28 days after the last dose.
# Eligible patients received single oral dosing of DZD1516 on Cycle 0 Day 1 (C0D1), followed by a 7-day washout. Twice daily oral dosing (bid) of DZD1516 was commenced from C1D1 in a continuous 21-day cycle until disease progression, unacceptable toxicity, or withdrawal of consent. All doses were taken under fed conditions (within 30 minutes after a meal).
# Planned dosing consisted of 25, 50, 100, 200, 300, and 400 mg. Each dose escalation cohort will comprise a minimum of three and a maximum of six evaluable patients (except only one patient in the starting dose cohort). The maximum tolerated dose of DZD1516 was defined according to safety data and the Bayesian optimal interval (BOIN) design. Dose escalation/de-escalation rule with target toxicity rate for the MTD is 0.30 with interval of (0.20, 0.33).
# DLTs were any adverse event (AE) not clearly attributable to the patient’s disease, including ≥ grade 4 hematological toxicities present for ≥ 4 days, grade 3 thrombocytopenia with bleeding, or grade 4 thrombocytopenia lasting for > 5 days, ≥ grade 3 non-hematological toxicities that is dose-limiting in the judgment of the investigators. Any other toxicity that is greater than that at baseline, is clinically significant or unacceptable, and is judged to be a DLT by the SRC. Exceptions included alopecia of any grade and isolated grade 3 laboratory change without clinical sequelae or clinical significance.
# Safety evaluations were conducted at screening, on Day 1, 8, and 15 of Cycle 1, on Day 1 of each subsequent treatment cycle, at the end-of-treatment visit, and clinically indicated. Safety assessments included clinical laboratory measurements (hematology, chemistry, coagulation, and urinalysis), electrocardiogram (ECG), Echocardiogram/MUGA scan, ECOG performance status, vital signs, and physical examinations.
smiles,measurement,setting,value
COc1cc(O[C@H]2CCN(C)CC2(F)F)c2c(Nc3ccc(Oc4ccn5ncnc5c4)c(C)c3)ncnc2c1 [DZD1516],"Nervous system disorders, Any Grade",50 mg (N = 4),1 (25.0) n (%)
same,"Nervous system disorders, ≥ Grade 3",50 mg (N = 4),0 (0.0) n (%)
same,"Participants with any TEAE, Any Grade",50 mg (N = 4),3 (75.0) n (%)
same,"Participants with any TEAE, ≥ Grade 3",50 mg (N = 4),0 (0.0) n (%)
same,"Platelet count decreased, Any Grade",50 mg (N = 4),1 (25.0) n (%)
same,"Platelet count decreased, ≥ Grade 3",50 mg (N = 4),0 (0.0) n (%)
same,"Proteinuria, Any Grade",50 mg (N = 4),1 (25.0) n (%)
same,"Proteinuria, ≥ Grade 3",50 mg (N = 4),0 (0.0) n (%)
same,"Renal and urinary disorders, Any Grade",50 mg (N = 4),1 (25.0) n (%)
same,"Renal and urinary disorders, ≥ Grade 3",50 mg (N = 4),0 (0.0) n (%)
same,Subjects with any TEAE,50 mg (N = 4),3 (75.0) n (%)
same,Subjects with any drug-related TEAE,50 mg (N = 4),3 (75.0) n (%)
same,"Vomiting, Any Grade",50 mg (N = 4),0 (0.0) n (%)
same,"Vomiting, ≥ Grade 3",50 mg (N = 4),0 (0.0) n (%)
same,"White blood cell count decreased, Any Grade",50 mg (N = 4),1 (25.0) n (%)
same,"White blood cell count decreased, ≥ Grade 3",50 mg (N = 4),0 (0.0) n (%)
same,"Alanine aminotransferase increased, Any Grade",100 mg (N = 4),0 (0.0) n (%)
same,"Alanine aminotransferase increased, ≥ Grade 3",100 mg (N = 4),0 (0.0) n (%)
same,"Anemia, Any Grade",100 mg (N = 4),1 (25.0) n (%)
same,"Anemia, ≥ Grade 3",100 mg (N = 4),0 (0.0) n (%)
same,Any TEAE: Grade 3,100 mg (N = 4),1 (25.0) n (%)
same,Any TEAE: Leading to death,100 mg (N = 4),0 (0.0) n (%)
same,Any TEAE: Leading to dose reduction,100 mg (N = 4),0 (0.0) n (%)
same,Any TEAE: Leading to treatment discontinuation,100 mg (N = 4),0 (0.0) n (%)
same,Any TEAE: Leading to treatment interruption,100 mg (N = 4),1 (25.0) n (%)
same,Any TEAE: SAE,100 mg (N = 4),1 (25.0) n (%)
same,"Aspartate aminotransferase increased, Any Grade",100 mg (N = 4),0 (0.0) n (%)
same,"Aspartate aminotransferase increased, ≥ Grade 3",100 mg (N = 4),0 (0.0) n (%)
same,"Blood and lymphatic system disorders, Any Grade",100 mg (N = 4),1 (25.0) n (%)
same,"Blood and lymphatic system disorders, ≥ Grade 3",100 mg (N = 4),0 (0.0) n (%)
same,"Blood bilirubin increased, Any Grade",100 mg (N = 4),0 (0.0) n (%)
same,"Blood bilirubin increased, ≥ Grade 3",100 mg (N = 4),0 (0.0) n (%)
same,"Cardiac disorders, Any Grade",100 mg (N = 4),0 (0.0) n (%)
same,"Cardiac disorders, ≥ Grade 3",100 mg (N = 4),0 (0.0) n (%)
same,"Constipation, Any Grade",100 mg (N = 4),1 (25.0) n (%)
same,"Constipation, ≥ Grade 3",100 mg (N = 4),0 (0.0) n (%)
same,"Decreased appetite, Any Grade",100 mg (N = 4),1 (25.0) n (%)
same,"Decreased appetite, ≥ Grade 3",100 mg (N = 4),0 (0.0) n (%)
same,"Dizziness, Any Grade",100 mg (N = 4),1 (25.0) n (%)
same,"Dizziness, ≥ Grade 3",100 mg (N = 4),0 (0.0) n (%)
same,Drug-related TEAE: Grade 3,100 mg (N = 4),1 (25.0) n (%)
same,Drug-related TEAE: Leading to death,100 mg (N = 4),0 (0.0) n (%)
same,Drug-related TEAE: Leading to dose reduction,100 mg (N = 4),0 (0.0) n (%)
same,Drug-related TEAE: Leading to treatment discontinuation,100 mg (N = 4),0 (0.0) n (%)
same,Drug-related TEAE: Leading to treatment interruption,100 mg (N = 4),1 (25.0) n (%)
same,Drug-related TEAE: SAE,100 mg (N = 4),1 (25.0) n (%)
same,"Fatigue, Any Grade",100 mg (N = 4),1 (25.0) n (%)
same,"Fatigue, ≥ Grade 3",100 mg (N = 4),0 (0.0) n (%)
same,"Gastrointestinal disorders, Any Grade",100 mg (N = 4),2 (50.0) n (%)
same,"Gastrointestinal disorders, ≥ Grade 3",100 mg (N = 4),1 (25.0) n (%)
same,"General disorders and administration site conditions, Any Grade",100 mg (N = 4),1 (25.0) n (%)
same,"General disorders and administration site conditions, ≥ Grade 3",100 mg (N = 4),0 (0.0) n (%)
same,"Headache, Any Grade",100 mg (N = 4),2 (50.0) n (%)
same,"Headache, ≥ Grade 3",100 mg (N = 4),0 (0.0) n (%)
same,"Hemoglobin decreased, Any Grade",100 mg (N = 4),0 (0.0) n (%)
same,"Hemoglobin decreased, ≥ Grade 3",100 mg (N = 4),0 (0.0) n (%)
same,"Investigations, Any Grade",100 mg (N = 4),3 (75.0) n (%)
same,"Investigations, ≥ Grade 3",100 mg (N = 4),1 (25.0) n (%)
same,"Lipase increased, Any Grade",100 mg (N = 4),0 (0.0) n (%)
same,"Lipase increased, ≥ Grade 3",100 mg (N = 4),0 (0.0) n (%)
same,"Malaise, Any Grade",100 mg (N = 4),0 (0.0) n (%)
same,"Malaise, ≥ Grade 3",100 mg (N = 4),0 (0.0) n (%)
same,"Metabolism and nutrition disorders, Any Grade",100 mg (N = 4),3 (75.0) n (%)
same,"Metabolism and nutrition disorders, ≥ Grade 3",100 mg (N = 4),0 (0.0) n (%)
same,"Musculoskeletal and connective tissue disorders, Any Grade",100 mg (N = 4),0 (0.0) n (%)
same,"Musculoskeletal and connective tissue disorders, ≥ Grade 3",100 mg (N = 4),0 (0.0) n (%)
same,"Nausea, Any Grade",100 mg (N = 4),0 (0.0) n (%)
same,"Nausea, ≥ Grade 3",100 mg (N = 4),0 (0.0) n (%)
same,"Nervous system disorders, Any Grade",100 mg (N = 4),3 (75.0) n (%)
same,"Nervous system disorders, ≥ Grade 3",100 mg (N = 4),0 (0.0) n (%)
same,"Participants with any TEAE, Any Grade",100 mg (N = 4),4 (100.0) n (%)
same,"Participants with any TEAE, ≥ Grade 3",100 mg (N = 4),1 (25.0) n (%)
same,"Platelet count decreased, Any Grade",100 mg (N = 4),1 (25.0) n (%)
same,"Platelet count decreased, ≥ Grade 3",100 mg (N = 4),0 (0.0) n (%)
same,"Proteinuria, Any Grade",100 mg (N = 4),0 (0.0) n (%)
same,"Proteinuria, ≥ Grade 3",100 mg (N = 4),0 (0.0) n (%)
same,"Renal and urinary disorders, Any Grade",100 mg (N = 4),1 (25.0) n (%)
same,"Renal and urinary disorders, ≥ Grade 3",100 mg (N = 4),0 (0.0) n (%)
same,Subjects with any TEAE,100 mg (N = 4),4 (100.0) n (%)
same,Subjects with any drug-related TEAE,100 mg (N = 4),4 (100.0) n (%)
same,"Vomiting, Any Grade",100 mg (N = 4),2 (50.0) n (%)
same,"Vomiting, ≥ Grade 3",100 mg (N = 4),1 (25.0) n (%)
same,"White blood cell count decreased, Any Grade",100 mg (N = 4),0 (0.0) n (%)
same,"White blood cell count decreased, ≥ Grade 3",100 mg (N = 4),0 (0.0) n (%)
same,"Alanine aminotransferase increased, Any Grade",200 mg (N = 5),0 (0.0) n (%)
same,"Alanine aminotransferase increased, ≥ Grade 3",200 mg (N = 5),0 (0.0) n (%)
same,"Anemia, Any Grade",200 mg (N = 5),1 (20.0) n (%)
same,"Anemia, ≥ Grade 3",200 mg (N = 5),0 (0.0) n (%)
same,Any TEAE: Grade 3,200 mg (N = 5),1 (20.0) n (%)
same,Any TEAE: Leading to death,200 mg (N = 5),0 (0.0) n (%)
same,Any TEAE: Leading to dose reduction,200 mg (N = 5),0 (0.0) n (%)
same,Any TEAE: Leading to treatment discontinuation,200 mg (N = 5),0 (0.0) n (%)
same,Any TEAE: Leading to treatment interruption,200 mg (N = 5),0 (0.0) n (%)
same,Any TEAE: SAE,200 mg (N = 5),0 (0.0) n (%)
same,"Aspartate aminotransferase increased, Any Grade",200 mg (N = 5),1 (20.0) n (%)
same,"Aspartate aminotransferase increased, ≥ Grade 3",200 mg (N = 5),0 (0.0) n (%)
same,"Blood and lymphatic system disorders, Any Grade",200 mg (N = 5),1 (20.0) n (%)
same,"Blood and lymphatic system disorders, ≥ Grade 3",200 mg (N = 5),0 (0.0) n (%)
same,"Blood bilirubin increased, Any Grade",200 mg (N = 5),2 (40.0) n (%)
same,"Blood bilirubin increased, ≥ Grade 3",200 mg (N = 5),0 (0.0) n (%)
same,"Cardiac disorders, Any Grade",200 mg (N = 5),1 (20.0) n (%)
same,"Cardiac disorders, ≥ Grade 3",200 mg (N = 5),0 (0.0) n (%)
same,"Constipation, Any Grade",200 mg (N = 5),1 (20.0) n (%)
same,"Constipation, ≥ Grade 3",200 mg (N = 5),0 (0.0) n (%)
same,"Decreased appetite, Any Grade",200 mg (N = 5),0 (0.0) n (%)
same,"Decreased appetite, ≥ Grade 3",200 mg (N = 5),0 (0.0) n (%)
same,"Dizziness, Any Grade",200 mg (N = 5),0 (0.0) n (%)
same,"Dizziness, ≥ Grade 3",200 mg (N = 5),0 (0.0) n (%)
same,Drug-related TEAE: Grade 3,200 mg (N = 5),1 (20.0) n (%)
same,Drug-related TEAE: Leading to death,200 mg (N = 5),0 (0.0) n (%)
same,Drug-related TEAE: Leading to dose reduction,200 mg (N = 5),0 (0.0) n (%)
same,Drug-related TEAE: Leading to treatment discontinuation,200 mg (N = 5),0 (0.0) n (%)
same,Drug-related TEAE: Leading to treatment interruption,200 mg (N = 5),0 (0.0) n (%)
same,Drug-related TEAE: SAE,200 mg (N = 5),0 (0.0) n (%)
same,"Fatigue, Any Grade",200 mg (N = 5),1 (20.0) n (%)
same,"Fatigue, ≥ Grade 3",200 mg (N = 5),0 (0.0) n (%)
same,"Gastrointestinal disorders, Any Grade",200 mg (N = 5),3 (60.0) n (%)
same,"Gastrointestinal disorders, ≥ Grade 3",200 mg (N = 5),0 (0.0) n (%)
same,"General disorders and administration site conditions, Any Grade",200 mg (N = 5),2 (40.0) n (%)
same,"General disorders and administration site conditions, ≥ Grade 3",200 mg (N = 5),0 (0.0) n (%)
same,"Headache, Any Grade",200 mg (N = 5),1 (20.0) n (%)

# Reference: article PMC10327353 (Breast Cancer Research : BCR, 2023)
